In ChEMBL document CHEMBL1140023, “Synthesis of marine alkaloid: 8,9-dihydrocoscinamide B and its analogues as Novel class of antileishmanial agents” (2007):
Active and inactive are the calls of the source. The rule behind the calls is not given here.

Experiments:
Type in all cases: functional
[1] = test system: Leishmania donovani; test: Antileishmanial activity against Leishmania donovani assessed as inhibition of amastigotes at 10 ug/ml
[2] = test system: Leishmania donovani; test: Antileishmanial activity against Leishmania donovani assessed as inhibition of promastigotes at 10 ug/ml
[3] = test system: Leishmania donovani; test: Antileishmanial activity against Leishmania donovani assessed as inhibition of amastigotes at 50 ug/ml
[4] = test system: Leishmania donovani; test: Antileishmanial activity against Leishmania donovani assessed as inhibition of promastigotes at 0.5 ug/ml

Row | SMILES | inhibition at 10 µg/mL [2] | further results
1 | O=C(Nc1ccc2[nH]ccc2c1)C(=O)c1c[nH]c2ccccc12 | 93.7% | Activity [1]: Active
2 | O=C(NCCCN1CCOCC1)C(=O)c1c[nH]c2ccccc12 | 73% | 
3 | O=C(Nc1nc2ccccc2s1)C(=O)c1c[nH]c2ccccc12 | 18% | 
4 | O=C(NCCc1c[nH]c2ccccc12)C(=O)c1c[nH]c2cc(Br)ccc12 | 99.2% | inhibition at 10 µg/mL [1]: 75.1%
5 | O=C(NCCc1c[nH]c2ccccc12)C(=O)c1c[nH]c2c(Cl)cccc12 | 99.1% | inhibition at 10 µg/mL [1]: 59.1%
6 | N=C(N)c1ccc(OCCCCCOc2ccc(C(=N)N)cc2)cc1 [PENTAMIDINE] | 30% | inhibition at 50 µg/mL [3]: 90%; inhibition at 0.5 µg/mL [4]: 85%
7 | O=C(NCCc1cn(S(=O)(=O)c2ccccc2)c2ccccc12)C(=O)c1cn(S(=O)(=O)c2ccccc2)c2ccccc12 | 49% | 
8 | CN1CCN(C(=O)C(=O)c2c[nH]c3ccccc23)CC1 | 35.9% | 
9 | O=C(NCc1ccccc1)C(=O)c1c[nH]c2ccccc12 | 53.9% | 
10 | N=C(N)NC(=O)C(=O)c1c[nH]c2ccccc12 | 55% | 
11 | Cn1cc(CCNC(=O)C(=O)c2cn(C)c3ccccc23)c2ccccc21 | 99% | inhibition at 10 µg/mL [1]: 97.8%
12 | COc1ccc(CCNC(=O)C(=O)c2c[nH]c3ccccc23)cc1OC | 78.2% | 
13 | COc1ccc(CCNC(=O)C(=O)c2c[nH]c3ccccc23)cc1 | 68.5% | 
14 | O=C(NCc1ccco1)C(=O)c1c[nH]c2ccccc12 | 99.2% | Activity [1]: inactive
15 | O=C(NCCc1c[nH]c2ccccc12)C(=O)c1c[nH]c2ccccc12 | 100% | inhibition at 10 µg/mL [1]: 97.7%
16 | O=C(NCCCn1ccnc1)C(=O)c1c[nH]c2ccccc12 | 55.5% | 
17 | O=C(C(=O)N1CCOCC1)c1c[nH]c2ccccc12 | 83.2% | inhibition at 10 µg/mL [1]: 78.1%
